Patent publication US20080194470A1, “Nim811 In Cerebral Ischemia and Brain and Spinal Cord Injury” (Novartis AG, priority 2004, published 2008)

Tested on: isolated rodent brain-derived mitochondria
Settings: under energized and de-energized conditions; comparable to the effects of cyclosporine A
Excerpt: Spinal cord injury model (in vivo) • Adult Lewis rats are injured microsurgically by transecting the dorsal half of the spinal cord bilaterally at the level of the eighth thoracic vertebra. Laminectomy, anesthesia and surgery are described in Schnell and Schwab, Eur J Neurosci, Vol. 5, pp. 1156-1171 (1993). […] Tamura et al., J Cereb Blood Flow Metabol, Vol. 1, pp. 53-60 (1981); and Sauter and Rudin, Stroke, Vol. 17, pp. 1228-1234 (1986)]. • 3. Inhibition of mitochondrial permeability transition in isolated rodent brain-derived mitochondria and prevention of cell death in an in vitro model of ischemic brain damage, e.g. as described in Rytter et al., JCBF, Vol. 23, pp. 23-33.

Row | Substance | inhibition of calcium-induced mitochondrial swelling
1 | [Melle]^4-Ciclosporin | inhibitors of calcium-induced mitochondrial swelling
2 | [γ-hydroxy-MeLeu]^4-Ciclosporin | inhibitors of calcium-induced mitochondrial swelling
